Assay results as given in PubChem BioAssay AID248 (DTP/NCI, 2004).
“And” between values parts separate entries of the source, which are not always exact repeats. Identical values can stand only once. Toxic doses and inconclusive results are not listed. No stated cut-off is given here; in the data, active means T/C of 150% or more; inactive means T/C below 125%.

Tested on: L1210 leukemia ip in BDF1 mice, survival T/C
Test: NCI In Vivo Anticancer Drug Screen. Data for tumor model L1210 Leukemia (intraperitoneal) in B6D2F1 (BDF1) mice
Settings: endpoint: mean survival time, higher = longer survival
How it was run: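 Each compound was tested against a transplantable tumor grown in mice. The endpoint was survival, with treated animals benchmarked against vehicle controls as a simple ratio.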

[1] = dose: 100.0 mg/kg/injection, schedule: Q01DX001 (ip), vehicle: saline
[2] = dose: 200.0 mg/kg/injection, schedule: Q01DX001 (ip), vehicle: saline
[3] = dose: 400.0 mg/kg/injection, schedule: Q01DX001 (ip), vehicle: saline
[4] = dose: 50.0 mg/kg/injection, schedule: Q01DX009 (ip), vehicle: Klucel (hydroxypropylcellulose) (HPC)
[5] = dose: 100.0 mg/kg/injection, schedule: Q01DX009 (ip), vehicle: Klucel (hydroxypropylcellulose) (HPC)
[6] = dose: 200.0 mg/kg/injection, schedule: Q01DX009 (ip), vehicle: Klucel (hydroxypropylcellulose) (HPC)
[7] = dose: 100.0 mg/kg/injection, schedule: Q04DX003 (ip), vehicle: saline
[8] = dose: 200.0 mg/kg/injection, schedule: Q04DX003 (ip), vehicle: saline
[9] = dose: 400.0 mg/kg/injection, schedule: Q04DX003 (ip), vehicle: saline
[10] = dose: 400.0 mg/kg/injection, schedule: Q01DX009 (ip), vehicle: Klucel (hydroxypropylcellulose) (HPC)

Measured: T/C

COc1ccc(C(=O)/C=C/c2ccccc2)c(O)c1
inactive: dose: 50.0 mg/kg/injection, schedule: Q01DX001 (ip), vehicle: saline 98 % of control | [1] 102 % of control | [2] 102 % of control | [3] 98 % of control

CC(=O)Nc1ccc(Cl)cc1
inactive: dose: 50.0 mg/kg/injection, schedule: Q01DX001 (ip), vehicle: other 101 % of control | dose: 100.0 mg/kg/injection, schedule: Q01DX001 (ip), vehicle: other 98 % of control | dose: 200.0 mg/kg/injection, schedule: Q01DX001 (ip), vehicle: other 101 % of control | dose: 400.0 mg/kg/injection, schedule: Q01DX001 (ip), vehicle: other 106 % of control

CN(C)C=Nc1ccc(C(=O)OCCN(C)C)cc1
inactive: dose: 50.0 mg/kg/injection, schedule: Q01DX009 (ip), vehicle: saline with Tween-80 115 % of control | dose: 100.0 mg/kg/injection, schedule: Q01DX009 (ip), vehicle: saline with Tween-80 97 % of control | dose: 200.0 mg/kg/injection, schedule: Q01DX009 (ip), vehicle: saline with Tween-80 106 % of control

CN=C(NC1CCCCC1)c1ccc(NC(=O)c2ccc(C(=O)Nc3ccc(C(=NC)NC4CCCCC4)cc3)cc2)cc1
inactive: dose: 1.88 mg/kg/injection, schedule: Q01DX Z (ip), vehicle: saline 102 % of control | dose: 3.75 mg/kg/injection, schedule: Q01DX Z (ip), vehicle: saline 100 % of control | dose: 7.5 mg/kg/injection, schedule: Q01DX Z (ip), vehicle: saline 102 % of control

COc1ccc(N=CC2CCCCC2=O)c([N+](=O)[O-])c1 (centres undefined)
inactive: [1] 106 % of control | [2] 95 % of control | [3] 93 % of control

C[C@]12CC[C@H](O)C[C@@]1(O)CC[C@@H]1[C@@H]2CC[C@]2(C)[C@@H](c3ccc(=O)oc3)CC[C@]12O
inactive: dose: 1.25 mg/kg/injection, schedule: Q01DX009 (ip), vehicle: Klucel (hydroxypropylcellulose) (HPC) 107 % of control | dose: 2.5 mg/kg/injection, schedule: Q01DX009 (ip), vehicle: Klucel (hydroxypropylcellulose) (HPC) 91 % of control | dose: 5.0 mg/kg/injection, schedule: Q01DX009 (ip), vehicle: Klucel (hydroxypropylcellulose) (HPC) 96 % of control | dose: 10.0 mg/kg/injection, schedule: Q01DX009 (ip), vehicle: Klucel (hydroxypropylcellulose) (HPC) 102 % of control | dose: 20.0 mg/kg/injection, schedule: Q01DX009 (ip), vehicle: Klucel (hydroxypropylcellulose) (HPC) 98 % of control | dose: 25.0 mg/kg/injection, schedule: Q01DX009 (ip), vehicle: carboxymethylcellulose (CMC) 106 % of control | dose: 50.0 mg/kg/injection, schedule: Q01DX001 (ip), vehicle: carboxymethylcellulose (CMC) 104 % of control | dose: 50.0 mg/kg/injection, schedule: Q01DX009 (ip), vehicle: carboxymethylcellulose (CMC) 92 % of control | dose: 100.0 mg/kg/injection, schedule: Q01DX001 (ip), vehicle: carboxymethylcellulose (CMC) 109 % of control

CC1=CCCC(C)(C)C1C=C1C(=O)NC(=S)NC1=O (centres undefined)
inactive: [4] 92 % of control | [5] 98 % of control | [6] 109 % of control

CCCCOc1ccccc1NC(=O)CCl
inactive: [7] 100 % of control | [8] 100 % of control | [9] 93 % of control

O=C(N/N=C/c1c[nH]c2ccccc12)C1CCCO1 (centres undefined)
inactive: [5] 98 % of control | [6] 98 % of control | [10] 94 % of control

Clc1ccc(-c2cc[s+]s2)cc1
inactive: dose: 12.5 mg/kg/injection, schedule: Q01DX009 (ip), vehicle: water 91 % of control | dose: 25.0 mg/kg/injection, schedule: Q04DX003 (ip), vehicle: water 100 % of control | dose: 50.0 mg/kg/injection, schedule: Q01DX009 (ip), vehicle: water 88 % of control | dose: 50.0 mg/kg/injection, schedule: Q04DX003 (ip), vehicle: water 98 % of control | dose: 100.0 mg/kg/injection, schedule: Q04DX003 (ip), vehicle: water 98 % of control and 92 % of control

Cc1ccc(C(=O)C2CC=CCC2C(=O)c2ccc(C)cc2)cc1 (centres undefined)
inactive: [4] 97 % of control | [5] 91 % of control | [6] 92 % of control | [10] 90 % of control

SCCS
inactive: dose: 50.0 mg/kg/injection, schedule: Q04DX002 (ip), vehicle: saline with Tween-80 101 % of control | dose: 100.0 mg/kg/injection, schedule: Q04DX002 (ip), vehicle: saline with Tween-80 101 % of control | dose: 200.0 mg/kg/injection, schedule: Q04DX002 (ip), vehicle: saline with Tween-80 86 % of control

CN(C)c1ccc(/C=N/Nc2c([N+](=O)[O-])cc(C(F)(F)F)cc2[N+](=O)[O-])cc1
inactive: dose: 100.0 mg/kg/injection, schedule: Q01DX009 (ip), vehicle: gum acacia 90 % of control | dose: 200.0 mg/kg/injection, schedule: Q01DX009 (ip), vehicle: gum acacia 88 % of control | dose: 400.0 mg/kg/injection, schedule: Q01DX009 (ip), vehicle: gum acacia 88 % of control

C#CC(C)(C)OC(C)=O
inactive: dose: 100.0 mg/kg/injection, schedule: Q01DX001 (ip), vehicle: Klucel (hydroxypropylcellulose) (HPC) 99 % of control | dose: 100.0 mg/kg/injection, schedule: Q04DX003 (ip), vehicle: saline with Tween-80 92 % of control | dose: 200.0 mg/kg/injection, schedule: Q01DX001 (ip), vehicle: Klucel (hydroxypropylcellulose) (HPC) 99 % of control | dose: 200.0 mg/kg/injection, schedule: Q04DX003 (ip), vehicle: saline with Tween-80 103 % of control | dose: 400.0 mg/kg/injection, schedule: Q01DX001 (ip), vehicle: Klucel (hydroxypropylcellulose) (HPC) 104 % of control | dose: 400.0 mg/kg/injection, schedule: Q04DX003 (ip), vehicle: saline with Tween-80 92 % of control

O=C(Nc1nc2ccccc2[nH]1)c1ccc(C(=O)Nc2nc3ccccc3[nH]2)cc1
inactive: dose: 15.0 mg/kg/injection, schedule: Q01DX Z (ip), vehicle: other 100 % of control | dose: 30.0 mg/kg/injection, schedule: Q01DX Z (ip), vehicle: other 100 % of control | dose: 60.0 mg/kg/injection, schedule: Q01DX Z (ip), vehicle: other 100 % of control | dose: 120.0 mg/kg/injection, schedule: Q01DX Z (ip), vehicle: other 97 % of control | dose: 180.0 mg/kg/injection, schedule: Q01DX Z (ip), vehicle: carboxymethylcellulose (CMC) 102 % of control | dose: 270.0 mg/kg/injection, schedule: Q01DX Z (ip), vehicle: carboxymethylcellulose (CMC) 96 % of control

O=C1CCCCCN1
inactive: [1] 101 % of control | dose: 100.0 mg/kg/injection, schedule: Q01DX009 (ip), vehicle: saline 100 % of control | dose: 100.0 mg/kg/injection, schedule: Q04DX002 (ip), vehicle: other 98 % of control | [2] 101 % of control | dose: 200.0 mg/kg/injection, schedule: Q01DX009 (ip), vehicle: saline 100 % of control | dose: 200.0 mg/kg/injection, schedule: Q04DX002 (ip), vehicle: other 95 % of control | [3] 103 % of control | dose: 400.0 mg/kg/injection, schedule: Q04DX002 (ip), vehicle: other 101 % of control

COc1cc2c(cc1O)C(CCc1cc(OC)c(OC)c(OC)c1)=[N+](C)CC2
inactive: dose: 25.0 mg/kg/injection, schedule: Q04DX002 (ip), vehicle: Klucel (hydroxypropylcellulose) (HPC) 101 % of control | dose: 50.0 mg/kg/injection, schedule: Q04DX002 (ip), vehicle: Klucel (hydroxypropylcellulose) (HPC) 101 % of control | dose: 100.0 mg/kg/injection, schedule: Q04DX002 (ip), vehicle: Klucel (hydroxypropylcellulose) (HPC) 105 % of control

Clc1ccc(/C=N\c2nn[nH]n2)c(Cl)c1 (tested in a mixture with another compound)
inactive: [7] 89 % of control | [8] 89 % of control | [9] 98 % of control

O=Nc1ccc2ccccc2c1N=Nc1ccccc1C(=O)O
inactive: [5] 101 % of control | [6] 100 % of control | [10] 103 % of control
